One series deals with Trypanosoma cruzi. Put plainly: Antitrypanosomal activity against Trypanosoma cruzi Y trypomastigotes. It counts as functional, organism-based.
The nature of series [1]: Toxicity in Artemia salina. In kind it is organism-based. The note with it: in vivo, read-out: LD50 (the source's name).

≈ marks a conversion by molar mass, not a printed value. A value given as a limit tells only on which side of the number the result lay.

For orientation: IC50 means the concentration needed to halve the response being measured. A lower IC50 goes with inhibition by little substance.

In the series on Trypanosoma cruzi, `CO[C@H]1O[C@@H]([C@H](O)C(C)(C)OC)C[C@H]1[C@@H]1CC[C@]2(C)C3=CC[C@H]4C(C)(C)C(=O)CC[C@]4(C)[C@H]3CC[C@@]12C` had an IC50 of 114 µg/mL (≈ 222 µM). For the same compound, the LC50 in series [1] is > 100 µg/mL.
For `CNc1ccccc1C(=O)O[C@H]1CC[C@]2(C)[C@H]3CC[C@]45C[C@]4(CC[C@H]5[C@@H]4C[C@H]([C@H](O)C(C)(C)O)O[C@H]4OC)[C@]3(C)[C@H](O)C[C@H]2C1(C)C` the same measures were > 1000 µg/mL and > 100 µg/mL.
Consider `CNc1ccccc1C(=O)O[C@H]1CC[C@]2(C)[C@H]3CC[C@]45C[C@]4(CC[C@H]5[C@@H]4C[C@H]([C@H](O)C(C)(C)O)OC4O)[C@]3(C)[C@H](O)C[C@H]2C1(C)C` (stereo partly specified), for which the concentration for half-maximal inhibition (IC50) in the series on Trypanosoma cruzi is > 1000 µg/mL. Also, the LC50 in series [1] was > 100 µg/mL.
For `CO[C@@H]1O[C@@H]([C@H](O)C(C)(C)OC)C[C@H]1[C@@H]1CC[C@]2(C)C3=CC[C@H]4C(C)(C)C(=O)CC[C@]4(C)[C@H]3CC[C@@]12C`, in that order: 135 µg/mL (≈ 261 µM) and > 100 µg/mL.
In the case of `CNc1ccccc1C(=O)O[C@H]1CC[C@]2(C)[C@H]3CC[C@]45C[C@]4(CC[C@H]5[C@@H]4C[C@H]([C@H](O)C(C)(C)O)O[C@@H]4OC)[C@]3(C)[C@H](O)C[C@H]2C1(C)C`, the IC50 in the series with Trypanosoma cruzi is > 1000 µg/mL. Moreover, the LC50 in series [1] is > 100 µg/mL.
For the compound `CN(C)c1ccc(C(=C2C=CC(=[N+](C)C)C=C2)c2ccc(N(C)C)cc2)cc1.[Cl-]` [GENTIAN VIOLET], in the series on Trypanosoma cruzi, the half-inhibitory concentration (IC50) came to 7.5 µg/mL.

(Values after ChEMBL document CHEMBL1148126, “Triterpenoid constituents of Raulinoa echinata” (J Nat Prod, 2002).)
